Source: publication PMC9005804, “GPR105-Targeted Therapy Promotes Gout Resolution as a Switch Between NETosis and Apoptosis of Neutrophils” (Frontiers in Immunology, 2022)

Molecular target: T1, GPR105 (Homo sapiens, UniProt Q15391)
T1 construct: gene P2RY14
T1 sequence (Q15391 1-338): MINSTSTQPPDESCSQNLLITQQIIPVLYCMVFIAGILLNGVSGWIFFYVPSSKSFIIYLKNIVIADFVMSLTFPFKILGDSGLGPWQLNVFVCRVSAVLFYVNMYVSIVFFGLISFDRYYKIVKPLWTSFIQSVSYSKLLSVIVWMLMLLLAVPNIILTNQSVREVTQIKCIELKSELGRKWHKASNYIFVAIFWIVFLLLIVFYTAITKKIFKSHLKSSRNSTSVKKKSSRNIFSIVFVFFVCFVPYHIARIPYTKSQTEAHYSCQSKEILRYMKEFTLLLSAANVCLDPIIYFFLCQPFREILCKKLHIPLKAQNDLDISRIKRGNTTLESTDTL
Assay: cAMP-Glo luminescence assay in HEK293-hGPR105 cells (forskolin plus UDPG stimulated), antagonism
Assay type: cell-based

IC50: 5.1 µM
Compound: C/C=C/C#CC#C[C@@H](O)[C@@H](/C=C/CCCO)O[C@@H]1O[C@H](CO)[C@@H](O)[C@H](O)[C@H]1O [LBT, lobetyolin]
